Tested on: 935938-334-R-J1-PDC complex spheroid viability
Test: Anticancer human tumor 935938-334-R-J1-PDC patient-derived small intestine adenocarcinoma cell line growth inhibition [POLQ]
Conditions: second compound 1 µM; first compound 0.1 µM; hits give low values
Procedure, shortened: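 Complex spheroid viability model combining PDC tumour cells with endothelial (HUVEC) and MSC stromal cells. Novobiocin, ART-558 or RP6685 were tested singly and in combination with standard and investigational anticancer drugs. Each was titrated in half-log steps from near clinical Cmax, or from 10 microM where Cmax was unknown.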
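Note: spheroids exposed to drugs for seven days before viability read; 100% = DMSO vehicle control wells.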

In the case of `COc1cccc(OCCCN)c1-c1cc(Nc2cnc(C#N)cn2)n[nH]1` + Cc1cccc(N(C)C(=O)C2C(O)CCN2c2nc(C)cc(C(F)(F)F)c2C#N)c1, the viability, T/C is reported as 28.5%.

Same assay, conditions: second compound 1 µM; first compound 0.316 µM; hits give low values

In order of rising viability, T/C:
1. COc1cccc(OCCCN)c1-c1cc(Nc2cnc(C#N)cn2)n[nH]1 + Cc1cccc(N(C)C(=O)C2C(O)CCN2c2nc(C)cc(C(F)(F)F)c2C#N)c1  9.11%
2. COc1ccc([C@@H](O)c2cc(-c3ncnc4cc(N5CCOCC5)ccc34)c(F)cc2Cl)nn1 + Cc1cccc(N(C)C(=O)C2C(O)CCN2c2nc(C)cc(C(F)(F)F)c2C#N)c1  83.4%
3. CC(C)n1c(=O)n(C)c2cnc3cc(F)c(-c4ccc(OCCCN5CCCCC5)nc4)cc3c21 + Cc1cccc(N(C)C(=O)C2C(O)CCN2c2nc(C)cc(C(F)(F)F)c2C#N)c1  89.1%
4. CC1COCCN1c1cc(C2(S(C)(=N)=O)CC2)nc(-c2ccnc3[nH]ccc23)n1 (configuration not stated) + Nc1ccc(C#CCN(C(=O)Cc2ncc(C(F)(F)F)cc2C(F)(F)F)c2ccc(F)cc2)nn1  94.2%
5. O=C(Nc1ccc(O)c(NS(=O)(=O)c2ccc(F)cc2)c1)c1ccc(-c2ccccc2)cc1 + COC1C(OC(N)=O)C(O)C(Oc2ccc3c(O)c(NC(=O)c4ccc(O)c(CC=C(C)C)c4)c(=O)oc3c2C)OC1(C)C  96.2%
6. CCCS(=O)(=O)Nc1ccc(F)c(C(=O)c2c[nH]c3ncc(-c4ccc(Cl)cc4)cc23)c1F + Cc1cccc(N(C)C(=O)C2C(O)CCN2c2nc(C)cc(C(F)(F)F)c2C#N)c1  121%
7. O=c1[nH]cc(F)c(=O)[nH]1 + Cc1cccc(N(C)C(=O)C2C(O)CCN2c2nc(C)cc(C(F)(F)F)c2C#N)c1  122%

Same assay, conditions: second compound 1 µM; first compound 1 µM; hits give low values

In order of falling viability, T/C:
1. CCCS(=O)(=O)Nc1ccc(F)c(C(=O)c2c[nH]c3ncc(-c4ccc(Cl)cc4)cc23)c1F + Cc1cccc(N(C)C(=O)C2C(O)CCN2c2nc(C)cc(C(F)(F)F)c2C#N)c1  148%
2. COc1ccc([C@@H](O)c2cc(-c3ncnc4cc(N5CCOCC5)ccc34)c(F)cc2Cl)nn1 + Cc1cccc(N(C)C(=O)C2C(O)CCN2c2nc(C)cc(C(F)(F)F)c2C#N)c1  97.6%
3. CC(C)n1c(=O)n(C)c2cnc3cc(F)c(-c4ccc(OCCCN5CCCCC5)nc4)cc3c21 + Cc1cccc(N(C)C(=O)C2C(O)CCN2c2nc(C)cc(C(F)(F)F)c2C#N)c1  93.5%
4. O=C(Nc1ccc(O)c(NS(=O)(=O)c2ccc(F)cc2)c1)c1ccc(-c2ccccc2)cc1 + COC1C(OC(N)=O)C(O)C(Oc2ccc3c(O)c(NC(=O)c4ccc(O)c(CC=C(C)C)c4)c(=O)oc3c2C)OC1(C)C  93%
5. O=c1[nH]cc(F)c(=O)[nH]1 + Cc1cccc(N(C)C(=O)C2C(O)CCN2c2nc(C)cc(C(F)(F)F)c2C#N)c1  91.7%
6. CC1COCCN1c1cc(C2(S(C)(=N)=O)CC2)nc(-c2ccnc3[nH]ccc23)n1 (configuration not stated) + Nc1ccc(C#CCN(C(=O)Cc2ncc(C(F)(F)F)cc2C(F)(F)F)c2ccc(F)cc2)nn1  78.2%
7. COc1cccc(OCCCN)c1-c1cc(Nc2cnc(C#N)cn2)n[nH]1 + Cc1cccc(N(C)C(=O)C2C(O)CCN2c2nc(C)cc(C(F)(F)F)c2C#N)c1  9.21%

Same assay, conditions: second compound 1 µM; first compound 3.16 µM; hits give low values

In order of falling viability, T/C:
1. CCCS(=O)(=O)Nc1ccc(F)c(C(=O)c2c[nH]c3ncc(-c4ccc(Cl)cc4)cc23)c1F + Cc1cccc(N(C)C(=O)C2C(O)CCN2c2nc(C)cc(C(F)(F)F)c2C#N)c1  131%
2. O=C(Nc1ccc(O)c(NS(=O)(=O)c2ccc(F)cc2)c1)c1ccc(-c2ccccc2)cc1 + COC1C(OC(N)=O)C(O)C(Oc2ccc3c(O)c(NC(=O)c4ccc(O)c(CC=C(C)C)c4)c(=O)oc3c2C)OC1(C)C  116%
3. CC(C)n1c(=O)n(C)c2cnc3cc(F)c(-c4ccc(OCCCN5CCCCC5)nc4)cc3c21 + Cc1cccc(N(C)C(=O)C2C(O)CCN2c2nc(C)cc(C(F)(F)F)c2C#N)c1  105%
4. O=c1[nH]cc(F)c(=O)[nH]1 + Cc1cccc(N(C)C(=O)C2C(O)CCN2c2nc(C)cc(C(F)(F)F)c2C#N)c1  73.7%
5. COc1ccc([C@@H](O)c2cc(-c3ncnc4cc(N5CCOCC5)ccc34)c(F)cc2Cl)nn1 + Cc1cccc(N(C)C(=O)C2C(O)CCN2c2nc(C)cc(C(F)(F)F)c2C#N)c1  72.7%
6. CC1COCCN1c1cc(C2(S(C)(=N)=O)CC2)nc(-c2ccnc3[nH]ccc23)n1 (configuration not stated) + Nc1ccc(C#CCN(C(=O)Cc2ncc(C(F)(F)F)cc2C(F)(F)F)c2ccc(F)cc2)nn1  38.8%

Same assay, conditions: second compound 1 µM; first compound 10 µM; hits give low values

In order of rising viability, T/C:
1. CC1COCCN1c1cc(C2(S(C)(=N)=O)CC2)nc(-c2ccnc3[nH]ccc23)n1 (configuration not stated) + Nc1ccc(C#CCN(C(=O)Cc2ncc(C(F)(F)F)cc2C(F)(F)F)c2ccc(F)cc2)nn1  22.6%
2. COc1ccc([C@@H](O)c2cc(-c3ncnc4cc(N5CCOCC5)ccc34)c(F)cc2Cl)nn1 + Cc1cccc(N(C)C(=O)C2C(O)CCN2c2nc(C)cc(C(F)(F)F)c2C#N)c1  35.8%
3. CCCS(=O)(=O)Nc1ccc(F)c(C(=O)c2c[nH]c3ncc(-c4ccc(Cl)cc4)cc23)c1F + Cc1cccc(N(C)C(=O)C2C(O)CCN2c2nc(C)cc(C(F)(F)F)c2C#N)c1  48.2%
4. O=c1[nH]cc(F)c(=O)[nH]1 + Cc1cccc(N(C)C(=O)C2C(O)CCN2c2nc(C)cc(C(F)(F)F)c2C#N)c1  64%
5. O=C(Nc1ccc(O)c(NS(=O)(=O)c2ccc(F)cc2)c1)c1ccc(-c2ccccc2)cc1 + COC1C(OC(N)=O)C(O)C(Oc2ccc3c(O)c(NC(=O)c4ccc(O)c(CC=C(C)C)c4)c(=O)oc3c2C)OC1(C)C  77%
6. CC(C)n1c(=O)n(C)c2cnc3cc(F)c(-c4ccc(OCCCN5CCCCC5)nc4)cc3c21 + Cc1cccc(N(C)C(=O)C2C(O)CCN2c2nc(C)cc(C(F)(F)F)c2C#N)c1  98.7%

Same assay, conditions: second compound 3.16 µM; first compound 0.00316 µM; hits give low values

For `COc1cccc(OCCCN)c1-c1cc(Nc2cnc(C#N)cn2)n[nH]1` + Cc1cccc(N(C)C(=O)C2C(O)CCN2c2nc(C)cc(C(F)(F)F)c2C#N)c1, the viability, T/C was 138%.

Same assay, conditions: second compound 3.16 µM; first compound 0.01 µM; hits give low values

`COc1cccc(OCCCN)c1-c1cc(Nc2cnc(C#N)cn2)n[nH]1` + Cc1cccc(N(C)C(=O)C2C(O)CCN2c2nc(C)cc(C(F)(F)F)c2C#N)c1 showed a viability, T/C of 90.6%.

Same assay, conditions: second compound 3.16 µM; first compound 0.0316 µM; hits give low values

In order of falling viability, T/C:
1. O=c1[nH]cc(F)c(=O)[nH]1 + Cc1cccc(N(C)C(=O)C2C(O)CCN2c2nc(C)cc(C(F)(F)F)c2C#N)c1  120%
2. O=C(Nc1ccc(O)c(NS(=O)(=O)c2ccc(F)cc2)c1)c1ccc(-c2ccccc2)cc1 + COC1C(OC(N)=O)C(O)C(Oc2ccc3c(O)c(NC(=O)c4ccc(O)c(CC=C(C)C)c4)c(=O)oc3c2C)OC1(C)C  105%
3. COc1ccc([C@@H](O)c2cc(-c3ncnc4cc(N5CCOCC5)ccc34)c(F)cc2Cl)nn1 + Cc1cccc(N(C)C(=O)C2C(O)CCN2c2nc(C)cc(C(F)(F)F)c2C#N)c1  101%
4. CC1COCCN1c1cc(C2(S(C)(=N)=O)CC2)nc(-c2ccnc3[nH]ccc23)n1 (configuration not stated) + Nc1ccc(C#CCN(C(=O)Cc2ncc(C(F)(F)F)cc2C(F)(F)F)c2ccc(F)cc2)nn1  93.5%
5. CC(C)n1c(=O)n(C)c2cnc3cc(F)c(-c4ccc(OCCCN5CCCCC5)nc4)cc3c21 + Cc1cccc(N(C)C(=O)C2C(O)CCN2c2nc(C)cc(C(F)(F)F)c2C#N)c1  93.4%
6. CCCS(=O)(=O)Nc1ccc(F)c(C(=O)c2c[nH]c3ncc(-c4ccc(Cl)cc4)cc23)c1F + Cc1cccc(N(C)C(=O)C2C(O)CCN2c2nc(C)cc(C(F)(F)F)c2C#N)c1  88.9%
7. COc1cccc(OCCCN)c1-c1cc(Nc2cnc(C#N)cn2)n[nH]1 + Cc1cccc(N(C)C(=O)C2C(O)CCN2c2nc(C)cc(C(F)(F)F)c2C#N)c1  69.5%

Same assay, conditions: second compound 3.16 µM; first compound 0.1 µM; hits give low values

`O=C(Nc1ccc(O)c(NS(=O)(=O)c2ccc(F)cc2)c1)c1ccc(-c2ccccc2)cc1` + COC1C(OC(N)=O)C(O)C(Oc2ccc3c(O)c(NC(=O)c4ccc(O)c(CC=C(C)C)c4)c(=O)oc3c2C)OC1(C)C showed a viability, T/C of 93.3%.
